In data set [1] the test system is HepG2 cells. The experiment in a line: cell viability test (MTT), concentration corresponding to an IC80. In kind it is cell-based. The text has this:
(§1) HepG2 cells are then individually treated with different compounds with different levels of toxicity.

Data set [2] relates to HepG2 cells. The experiment in a line: hybridization of probes from treated HepG2 cells on filters with clones from qualitative screening of p53-induced apoptosis (toxicity index). In kind it is cell-based. The note with it: HepG2 cells treated at IC80 concentration, p53 apoptosis filter.
Text: as §1

[3] abbreviates: HepG2 cells, exposure time 18 h.
Where [4] appears, read: HepG2 cells, exposure time 18 h, read-out: Concentration (calculated by cell viability test MTT, corresponds to an IC80).

The values that follow come from patent publication US20030059788A1, “Genetic markers of toxicity, preparation and uses thereof” (priority 2002, published 2003).

Like-named read-outs stand apart in the source and are kept apart here. Numbered stars: 1 amine (or outer) side, 2 acyl side, 3 side chain; on linkers, the order of the positions; unused ones are H or OH. Bridge positions count the residues as written; N and C are the ends. Square brackets hold non-standard residues; d marks the D form. Peptide text beside a SMILES is read from it. I, II: the chains in the order shown. Actinocin(9to1) = Cc1c2oc3c(C)ccc(C(=O)[*:1])c3nc-2c(C(=O)[*:2])c(N)c1=O; NMeV = CN[C@H](C(=O)O)C(C)C; Sar = CNCC(=O)O

With `O=c1[nH]cc(F)c(=O)[nH]1` [5 FU], the IC80 with HepG2 cells [1] amounted to 10000 nM.

Take `Cc1c2oc3c(C)ccc(C(=O)N[C@@H]4C(=O)N[C@H](C(C)C)C(=O)N5CCC[C@H]5C(=O)N(C)CC(=O)N(C)[C@@H](C(C)C)C(=O)O[C@@H]4C)c3nc-2c(C(=O)N[C@@H]2C(=O)N[C@H](C(C)C)C(=O)N3CCC[C@H]3C(=O)N(C)CC(=O)N(C)[C@@H](C(C)C)C(=O)O[C@@H]2C)c(N)c1=O` [Actinomycin D] (I: T[dV]P[Sar][NMeV] / II: T[dV]P[Sar][NMeV]; ester I:1-I:C, II:1-II:C; linker I:N-II:N via Actinocin(9to1)): the “Concentration (calculated by cell viability test MTT, corresponds to an IC80)” value in the data set with HepG2 cells [1] (setting [3]) is 0.02 µg/mL.

Consider `C[C@H]1C[C@H]2[C@@H]3CCC4=CC(=O)C=C[C@]4(C)[C@@]3(Cl)[C@@H](O)C[C@]2(C)[C@@]1(O)C(=O)CO` [Beclomethazone], for which, in the data set with HepG2 cells [1] (setting [4]), the IC80 is 50 nM.

Turning to `C[C@@H]1C[C@@H]([C@H](O)CC2CC(=O)NC(=O)C2)C(=O)[C@@H](C)C1` [Cycloheximide], the “Concentration (calculated by cell viability test MTT, corresponds to an IC80)” value in the data set with HepG2 cells [1] (setting [3]) was 5 µg/mL.

For `O=C(O)Cc1ccccc1Nc1c(Cl)cccc1Cl` [Diclofenac], in the data set with HepG2 cells [2], the “splicing events identical to those induced by p53-related toxicity (toxicity index, FIG. 2)” value is “generates more splicing events identical to those induced by p53-related toxicity than aspirin”.

`N#CC(C#N)=NNc1ccc(OC(F)(F)F)cc1` [FCCP] had an IC80 in the data set on HepG2 cells [1] of 5000 nM.

With `OO` [H2O2], in the data set with HepG2 cells [1] (setting [4]), the IC80 is 100000 nM.

For the molecule `CCCCCCCCCCCCCC(=O)O[C@@H]1[C@@H](C)[C@@]2(O)[C@@H](C=C(CO)C[C@]3(O)C(=O)C(C)=C[C@@H]23)[C@@H]2C(C)(C)[C@]12OC(C)=O` [PMA], the “Concentration (calculated by cell viability test MTT, corresponds to an IC80)” value with HepG2 cells [1] (setting [3]) was 1 µg/mL.

On to `CN[C@@H]1C[C@H]2O[C@@](C)([C@@H]1OC)n1c3ccccc3c3c4c(c5c6ccccc6n2c5c31)C(=O)NC4` [Staurosporine], for which the IC80 in the data set with HepG2 cells [1] (setting [4]) was 50 nM.

On to `CC(C)[C@@H]1NC(=O)[C@H](C)OC(=O)[C@@H](C(C)C)NC(=O)[C@@H](C(C)C)OC(=O)[C@H](C(C)C)NC(=O)[C@H](C)OC(=O)[C@@H](C(C)C)NC(=O)[C@@H](C(C)C)OC(=O)[C@H](C(C)C)NC(=O)[C@H](C)OC(=O)[C@@H](C(C)C)NC(=O)[C@@H](C(C)C)OC1=O` [Valinomycin], for which the IC80 with HepG2 cells [1] (setting [4]) is 15 nM.
